Measured values taken from US11884636B2, “Gonadotropin releasing hormone receptor antagonist and use thereof” (SHIJIAZHUANG YILING PHARMACEUTICAL CO., LTD., priority 2020, dated 2024).
Entries after “also recorded” stand apart in the source; their conditions may differ. Read-outs that look alike come from different tables or passages of the source.

Columns and labels:
[1] = tested on: serum luteinizing hormone (LH); experiment: Pharmacodynamic assay in male emasculated cynomolgus monkeys (serum LH); assay type: in vivo
Description: Three male cynomolgus monkeys (purchased from Guangxi GuiDong Quadrumana Development & Laboratory Co., Ltd.), 3 to 5 years old (weight 3.8 to 4.0 kg), were fasted overnight and underwent bilateral orchiectomy under anesthesia. Serum luteinizing hormone (LH) was measured in the cynomolgus monkeys from 3 to 7 weeks after emasculation using radioimmunoassay.
After successful emasculation surgical modeling, G201 and Elagolix Sodium (dissolvent: 0.5% CMC-Na) were given in 2 administration cycles by single oral gavage at doses of 10 mg/kg and 30 mg/kg, respectively, both in a volume of 10 mL/kg. Each administration cycle was separated by an elution period of approximately 2 weeks. For each cycle of administration, blood was collected before and 0.25, 0.5, 1, 2, 3, 6, 8 and 24 h after administration, respectively, and serum was separated for gonadal hormone LH assay.

[2] = molecular target: T1, recombinant human gonadotropin-releasing hormone receptor (GnRHR) (Homo sapiens, UniProt P30968); experiment: FLIPR calcium flux assay in CHO-K1/GNRHR/Gα15 cells; assay type: cell-based; conditions: Buserelin EC80 agonist, read-out: EC50, inhibition of intracellular calcium release
T1 construct: expressed in transfected cells
T1 sequence (P30968 1-328): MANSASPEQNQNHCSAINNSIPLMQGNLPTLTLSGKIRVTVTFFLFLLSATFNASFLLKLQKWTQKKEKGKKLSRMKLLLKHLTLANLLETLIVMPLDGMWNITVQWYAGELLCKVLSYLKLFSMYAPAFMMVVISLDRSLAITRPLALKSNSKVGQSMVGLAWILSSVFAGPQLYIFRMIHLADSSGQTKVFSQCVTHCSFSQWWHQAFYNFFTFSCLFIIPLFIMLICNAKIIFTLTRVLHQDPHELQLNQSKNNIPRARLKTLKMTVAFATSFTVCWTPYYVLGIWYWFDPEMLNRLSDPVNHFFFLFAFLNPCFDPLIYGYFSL
Description: Intracellular calcium changes of cell line CHO-K1/GNRHR/Gα15 that is stable of a recombinant human gonadotropin-releasing hormone receptor (GnRHR) were measured using an FLIPR calcium flux assay kit (Calcium 4 assay kit). GnRHR is a G protein-coupled receptor (GPCRs), and a GPCRs signal enabled intracellular calcium release through a Gq pathway. Therefore, functional changes of GnRHR, which carried out signal transduction through the Gq pathway, can be detected by detecting intracellular calcium release with a calcium-sensitive fluorescent probe. The assay steps were as follows: • 1. Cells were seeded in 384-well plates (Corning, Cat #:3764) at a density of 10,000 cells/well with an F12+10% FBS medium (20 μl/well) and cultured overnight (18 h). • 2. A dye working solution was prepared from a probenecid stock solution (500 mM) and a Calcium 4 stock solution mixed at 1:100. A sample to be tested G201 and Elagolix (2 mM in DMSO) was diluted with an assay buffer, specifically, 5 μl of 2 mM stock solution was taken and diluted to 200 μl (50 μM) to obtain a 5× sample working solution of a first concentration. 20 μl of the 5× sample working solution was taken and diluted to 200 μl, and after even mixing, a sample working solution of a second concentration was obtained. A total of eight gradient dilutions of sample working solutions were prepared respectively. […]

[3] = Rat pharmacokinetic assay; assay type: in vivo; conditions: SD rats; for F (absolute bioavailability) / bioavailability: oral gavage 50 mg/kg vs intravenous 25 mg/kg; for bioavailability / AUC(0-inf) / Cmax / Tmax / AUC(0-t) / clearance / Vd: female, rat, plasma; for bioavailability: SD, oral, 50 mg/kg, read-out: F (absolute bioavailability); for AUC(0-t): read-out: AUC0-24 h; for clearance: read-out: CLz (clearance rate) (converted); for Vd: read-out: Vz (apparent volume of distribution)
Description: 12 female SD rats, divided into four groups of three per group, were administrated G201 (dissolved in saline containing 5% N,N-dimethylacetamide and 5% cremophor ELL) and Elagolix Sodium (dissolved directly in saline) intravenously and by gavage at doses of 25 mg/kg and 50 mg/kg, respectively. Food was fasted overnight before administration and resumed 4 h after administration, with free access to water throughout the assay period. Blood was collected from the retro-orbital venous plexus before and 5, 15, 30 min, 1, 2, 4, 6, 8, 24 h after administration, and the volume of blood collected was approximately 0.2 mL. A whole blood sample centrifuged at 4000 rpm for 10 min within 1 h from collection. The upper layer of plasma was separated and stored in a refrigerator at minus 20° C. within 1 h until analysis. After the plasma sample were precipitated by methanolic protein at 1:8, G201 and Elagolix plasma concentrations were measured by an LC-MS/MS method, and main pharmacokinetic parameters were calculated by applying DAS3.2.7 software.

[4] = Mouse pharmacokinetic assay; assay type: in vivo; conditions: ICR mice
Description: 10 female ICR mice, divided into two groups of five per group, were administrated G201 intravenously and by oral gavage, respectively, at a dose of 10 mg/kg. Blood was collected from the retro-orbital venous plexus 0.083, 0.25, 0.5, 1, 2, 4, 6, 8 h after administration, and the volume of blood collected was approximately 0.1 mL. A blood sample was centrifuged at 4000 rpm for 10 min within 1 h. The upper layer of plasma was separated and stored in a refrigerator at minus 80° C. within 1 h to be measured. The subject animals were fasted for at least 12 h before blood collection and were not water fasted. Food and water were fasted during blood collection and free 2 h after administration. The plasma concentration of G201 in the ICR mice was measured by an LC-MS/MS method, and main pharmacokinetic parameters were calculated by applying DAS 3.2.7 pharmacokinetic software and include AUC0-4, AUC0-∞, Cmax, t1/2, etc.

[5] = rats; cited from earlier work
[6] = rats, oral radiolabeled Elagolix; cited from earlier work
[7] = monkeys; cited from earlier work
[8] = mice, dose of 10 mg/kg; cited from earlier work
[9] = human bodies; cited from earlier work
[10] = female, mouse, plasma, intravenous injection 10 mg/kg
[11] = female, mouse, plasma, oral administration 10 mg/kg

| Compound | t1/2z ([3]; intravenous injection 25 mg/kg) [min] | t1/2z ([3]; oral gavage 50 mg/kg) [min] | F (absolute bioavailability) [3] [%] | bioavailability [3] [%] | AUC(0-inf) ([3]; intravenous injection 25 mg/kg) [ng·h/mL] | Cmax ([3]; intravenous injection 25 mg/kg) [ng/mL] | Tmax ([3]; intravenous injection 25 mg/kg) [min] | AUC(0-t) ([3]; intravenous injection 25 mg/kg) [ng·h/mL] | clearance ([3]; intravenous injection 25 mg/kg) [mL/min/kg] | Vd ([3]; intravenous injection 25 mg/kg) [L/kg] | AUC(0-inf) ([3]; oral gavage 50 mg/kg) [ng·h/mL] | Cmax ([3]; oral gavage 50 mg/kg) [ng/mL] | Tmax ([3]; oral gavage 50 mg/kg) [min] | AUC(0-t) ([3]; oral gavage 50 mg/kg) [ng·h/mL] | further results |
| --- | --- | --- | --- | --- | --- | --- | --- | --- | --- | --- | --- | --- | --- | --- | --- |
| COc1cccc(-c2c(C)n(Cc3c(F)cccc3C(F)(F)F)c(=O)n(C[C@H](NCCCC(=O)O)c3ccccc3F)c2=O)c1F [Compound G201] | 47.4 | 282 | 51.9 | 51.9 | 15700 | 27200 | 4.8 | 15700 | 27 | 1.82 | 16400 | 17000 | 25.2 | 16300 | general condition, weight and abnormalities during the assay period ([1]; single oral gavage 10 mg/kg): no subject-related abnormalities were observed; serum LH change after administration ([1]; single oral gavage 10 mg/kg): decreased significantly; time of serum LH minimum after administration ([1]; single oral gavage 10 mg/kg): 3 h; serum LH inhibitory effect compared with 30 mg/kg Elagolix Sodium ([1]; single oral gavage 10 mg/kg G201): slightly higher magnitude of change; also recorded: comparable or superior; IC50 [2]: 37.6 nM; oral AUC0-∞ relative to that of Elagolix Sodium ([3]; oral gavage 50 mg/kg): three times; CLz ([4]; intravenous injection 10 mg/kg): 53 mL/min/kg; t1/2z ([4]; intravenous injection 10 mg/kg): 15.6 min; t1/2z ([4]; oral administration 10 mg/kg): 25.8 min; AUC(0-inf) [4, 10]: 3250 ng·h/mL; AUC(0-t) [4, 10]: 3240 ng·h/mL; Vd ([4]; female, mouse, plasma, intravenous injection 10 mg/kg, read-out: Vz): 1.17 L/kg; AUC(0-inf) [4, 11]: 1270 ng·h/mL; AUC(0-t) [4, 11]: 1010 ng·h/mL; Cmax [4, 11]: 2000 ng/mL; Tmax [4, 11]: 16.2 min; bioavailability ([4]; female, mouse, plasma, oral administration 10 mg/kg vs intravenous 10 mg/kg, read-out: F (absolute bioavailability)): 38.9% |
| COc1cccc(-c2c(C)n(Cc3c(F)cccc3C(F)(F)F)c(=O)n(C[C@H](NCCCC(=O)[O-])c3ccccc3)c2=O)c1F.[Na+] [Elagolix, Sodium R-(+)-4-{2-[5-(2-Fluoro-3-methoxyphenyl)-3-(2-fluoro-6-[trifluoromethyl]-benzyl)-4-methyl-2,6-dioxo-3,6-dihydro-2H-pyrimidin-1-yl]-1-phenylethylamino}butyrate] | – | – | – | – | – | – | – | – | – | – | – | – | – | – | absolute oral bioavailability [5]: 5.8%; total radioactivity excreted through the bile [6]: ~50%; absolute oral bioavailability [7]: 11%; absolute bioavailability [8]: 10%; apparent volume of distribution [9]: 1674 L |
| COc1cccc(-c2c(C)n(Cc3c(F)cccc3C(F)(F)F)c(=O)n(C[C@H](NCCCC(=O)[O-])c3ccccc3)c2=O)c1F.[Na+] [Elagolix Sodium, Sodium R-(+)-4-{2-[5-(2-Fluoro-3-methoxyphenyl)-3-(2-fluoro-6-[trifluoromethyl]-benzyl)-4-methyl-2,6-dioxo-3,6-dihydro-2H-pyrimidin-1-yl]-1-phenylethylamino}butyrate, reference compound] | 130 | 272 | 23.7 | 23.6 | 10200 | 15600 | 4.8 | 10200 | 41.3 | 8.46 | 4870 | 4660 | 25.2 | 4830 | general condition, weight and abnormalities during the assay period ([1]; single oral gavage 30 mg/kg): no subject-related abnormalities were observed; serum LH change after administration ([1]; single oral gavage 30 mg/kg): decreased significantly; time at which serum LH returned to the pre-administration level ([1]; single oral gavage 30 mg/kg): 24 h; time of serum LH minimum after administration ([1]; single oral gavage 30 mg/kg): 3 h |
